We go through six compounds from patent publication US8377913B2, “Vitamin D receptor activators and methods of making” (AbbVie Inc., priority 2007, dated 2013).

As usually defined, the EC50 is the concentration at which the effect is half-maximal. By IC50 is commonly meant the concentration at which inhibition is half-maximal.

Series [1] has as its system Human promyelocytic leukemia (HL60) cells. Nature of the series: HL-60 Differentiation. The settings on record: HL-60, 96 h, four days incubation, NBT, absorbance 570 nm. It counts as cell-based. As to the method: Human promyelocytic leukemia (HL60) cells were obtained from the American Type Culture Collection (ATCC Cat. # CCL-240, Manassas, Va.). Cells were maintained in RPMI 1640 medium (commercially available from Invitrogen, Carlsbad, Calif.) containing 10% fetal bovine serum (commercially available from Invitrogen, Carlsbad, Calif.) at 37° C. with 5% CO2. Cells were passaged weekly and were not allowed to become >90% confluent. For the assay, cells were plated at 5×10^5 cells per well in 200 uL media. Test compounds were diluted in media in concentrations between 10^−6-10^−10 M and then added to the appropriate wells. Cells were then incubated for four days at 37° C. in 5% CO2 atmosphere. After incubation, media was aspirated from each well and 75 uL of NBT solution (nitroblue tetrazolinium: 200 ng/mL PMA (phorbol 12-myrystate 13-acetate) and 2 mg/ml NBT (nitroblue tetrazolium) in distilled H2O) was added to each well followed by further incubation for 2 hours at 37° C. Following incubation, 150 uL lysis buffer (225 mL dimethylformamide, 67.5 g SDS). PMA stock solution (2 mg/ml in ethanol) was added to each well and the plate was allowed to sit at room temperature for 4 hours. HL-60 cell differentiation was assayed, Effect of each compound on cell growth was examined as a function of time; absorbance in each well was measured at 570 nm.

Series [2] has as its system Renin mRNA in As4.1 cells. In words: Renin mRNA in As4.1 cells transfected with pcDNA-hVDR (real-time RT-PCR). The series is classed as cell-based. As to the method: As4.1 cells (ATCC, Manassas, Va.) were cultured in Dulbecco's Modified Eagle Medium DMEM (commercially available from Invitrogen, Carlsbad, Calif.) with 10% fetal bovine serum at 37° C. in a humidified 5% CO2-95% air atmosphere. C3;ells were transfected with the pcDNA-hVDR plasmid (provided by Yan Chun Li, University of Chicago) by LIPOFECTAMINE™ 2000 (Invitrogen, Carlsbad, Calif.). siRNA was transfected with the pcDNA-hVDR plasmid by LIPOFECTAMINE™ 2000 according to the manufacturer's protocol. Twenty-four hours after transfection, cells were treated with test agents.
Real-time reverse transcription-PCR was performed with a MyiQ Real-time PCR Detection System (commercially available from BioRad, Hercules, Calif.). […] TaqMan™ probes that were 5′ labeled with the reporter 6-carboxyfluorescein (FAM) and 3′ labeled with the quencher tetramethylrhodamine (TAMRA) were used and the primer and probe sets were obtained from Applied Biosystems (Foster City, Calif.). Temperature conditions consisted of a step of 5 minutes at 95° C., followed by 45 cycles of 60° C. for 1 minute and 95° C. for 15 seconds. Data was collected during each extension phase of the PCR reaction and analyzed with the accompanying software package (BioRad, Hercules, Calif.). Threshold cycles were determined for each gene.
For orientation: Real-time PCR tracks product formation cycle by cycle.

Series [3] relates to PAI-1 mRNA in human coronary artery smooth muscle cells (CASMC). In words: PAI-1 mRNA in CASMC. The series is classed as cell-based. The settings on record: Homo sapiens. As to the method: (§1) Primary culture of human coronary artery smooth muscle cells (CASMC) (commercially available from Cambrex, Walkersville, Md.) were grown in smooth muscle growth medium SmGM-2 (commercially available from Lonza Bioscience) containing 5.5 mM glucose, 5% FBS, 50 μg/ml gentamicin, 50 ng/ml amphotericin-B, 5 μg/ml insulin, 2 ng/ml human recombinant fibroblast growth factor (hFGF), and 0.5 ng/ml human recombinant epidermal growth factor (hEGF) at 37° C. in a humidified 5% CO2-95% air atmosphere. Cells were grown to >80% confluence and used within five passages.
(§2) Real-time reverse transcription-PCR was performed with a MyiQ Real-Time PCR Detection System (BioRad, Hercules, Calif.). Each sample has a final volume of 25 μl containing 100 ng of cDNA, […] each of the forward and reverse PCR primers and […] of the TaqMan™ probe for the gene of interest (Applied Biosystems, Foster City, Calif.). Temperature conditions consisted of a step of 5 minutes at 95° C., followed by 40 cycles of 60° C. for 1 minute and 95° C. for 15 seconds. Data was collected during each extension phase of the PCR reaction and analyzed with the software package (BioRad, Hercules, Calif.). Threshold cycles were determined for each gene. […]

Series [4] deals with Thrombomodulin mRNA in human coronary artery smooth muscle cells (CASMC). In words: Thrombomodulin mRNA in CASMC. The series is classed as cell-based. The settings on record: for EC50: Homo sapiens. As to the method: as §1, §2
The test system of series [5] is Thrombospondin mRNA in human coronary artery smooth muscle cells (CASMC). Nature of the series: Thrombospondin mRNA in CASMC. It counts as cell-based. The settings on record: Homo sapiens. As to the method: as §1, §2
Series [6] concerns Male, C57BL6, mice. In words: Normal Mouse Calcemia Model. It counts as in vivo. The settings on record: s.c. once daily for 3 days, dose giving 1 mg/dL change in total Ca. As to the method: Male, C57BL6, mice were obtained from Jackson Laboratories. The mice were habituated for four days while maintained on a normal diet (D10001, Research Diets Inc.). Treatment was initiated with vehicle (20% ethanol/30% propylene glycol/50% water, 0.05 mL, s.c.) or test agent administered over a three log dose range. The animals were dosed once daily for 3 days. Twenty-four hours after the last dose, animals were anesthetized with ketamine/xylazine (100/18 mg/kg) and bled by cardiac puncture for measurement of PTH and other end points.
Measurement of PTH and minerals: Calcium (Ca), serum phosphorus (Pi), creatinine and BUN were measured from serum using an Abbott Aeroset® (Abbott Laboratories, Abbott Park, Ill.). Blood ionized calcium (iCa) was determined using the i-STAT® system (Abbott Laboratories, East Windsor, N.J.). Serum PTH was measured using a mouse parathyroid hormone (PTH) EIA kit obtained from ALPCO/Immutopics, Inc. (Windham, N.H.). Selected data is shown is Table 6. The graphs in FIG. 4 give an indication of dose response. Notable is that Example 1 produced an approximately 30% reduction in PTH over at least a three log dose range without a concomitant elevation of serum calcium of greater than 1 mg/dL.
Data analysis: Mean±standard error of the mean was calculated for each group. One way ANOVA followed by a Dunnett's test was used to assess differences between vehicle and drug-treated groups. *p<0.05=significance.

For series [7], the system named is VDR (VDRE-luciferase-reporter construct). In words: VDRE Reporter Gene Assay in HEK cells with stable expression of VDR. It counts as cell-based. The settings on record: Homo sapiens, HEK293, 24 hours. As to the method: Compound activity was also assessed by looking at a Vitamin D Response Element (VDRE) reporter gene assay, Human Embryonic Kidney cells (HEK cells) with a stable expression of VDR were cultured in 96-well plates at ˜4×10^5 cells/mL (100 μL/well) in DMEM medium containing 10% fetal calf serum. Cells were transfected with 0.2 μg per well of a VDRE-luciferase-reporter construct (from Y. Li, University of Chicago) and then treated with test agents at indicated concentrations for 24 hours. The luciferase activity was then measured following the manufacturer's instructions (Promega, Madison, Wis.).
In general terms: Reporter assays use an easily measured gene product as a stand-in for the process of interest.

In series [8] the target is T1, recombinant full-length human Vitamin D nuclear receptor (Homo sapiens, UniProt P11473).
T1 sequence (P11473 1-427): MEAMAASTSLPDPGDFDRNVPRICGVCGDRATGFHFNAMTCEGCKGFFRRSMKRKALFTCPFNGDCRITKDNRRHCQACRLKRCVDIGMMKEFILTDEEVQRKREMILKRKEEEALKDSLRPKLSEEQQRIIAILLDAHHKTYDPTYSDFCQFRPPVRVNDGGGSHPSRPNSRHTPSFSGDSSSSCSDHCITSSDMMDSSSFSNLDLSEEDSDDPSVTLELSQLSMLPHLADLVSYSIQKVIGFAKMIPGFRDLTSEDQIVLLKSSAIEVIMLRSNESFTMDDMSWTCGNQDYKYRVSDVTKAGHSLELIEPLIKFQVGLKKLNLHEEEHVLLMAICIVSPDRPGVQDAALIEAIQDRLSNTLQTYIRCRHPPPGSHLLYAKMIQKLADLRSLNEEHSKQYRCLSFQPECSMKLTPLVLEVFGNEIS
Nature of the series: biochemical.
Method: In vitro binding of selected compounds according to the invention to VDR was assessed using the following procedure. […] Each test compound was then serially diluted in binding buffer to concentrations appropriate for the assay, as one skilled in the art can determine.
Final assay volume was 100 uL. The filled plate was incubated overnight at 4° C. with gentle shaking. After 18 hours of incubation, 20 uL of wheat germ agglutinin-coated yttrium silicate scintillation proximity assay (SPA) beads (commercially available from Amersham Biosciences, Piscataway, N.J.; Part # RPNQ0270) resuspended in binding buffer was added to each well (200 ug/well) and the plate was incubated at room temperature for 2 hours with gentle shaking.

Structures are written as SMILES.

Regarding `C=C1/C(=C\C=C2/CCC[C@]3(C)[C@@H]([C@H](C)CCCC(C)(C)O)CC[C@@H]23)C[C@@H](O)C[C@@H]1O` [Calcitriol, 1,25-dihydroxyvitamin D3, reference compound], the EC50 in series [1] turned out to be 7 nM; in series [4], 1.6 nM. Besides, the figures for the IC50 in series [2], in series [3] and in series [5] were 1.6 nM, 0.8 nM and 19.1 nM, respectively. Moreover, the “1 mg/dL Δ total Ca” value in series [6] is 0.026 µg/kg.
For `C=C1[C@H](O)CC(=C/C=C2\CCC[C@]3(C)[C@@H]([C@H](C)CO)CC[C@@H]23)C[C@H]1O` [Example 2, (1R,3R,7E,17β)-17-[(1S)-2-hydroxy-1-methylethyl]-2-methylene-9,10-secoestra-5,7-diene-1,3-diol], the EC50 in series [7] was 52.7 nM; in series [1], 162 nM. The IC50 in series [2] amounted to 0.7 nM; in series [3] it was 0.03 nM; in series [5], 3.7 nM; in series [8] it was 890 nM. Besides, the “Thrombomodulin mRNA in CASMC EC50” value in series [4] was “inactive”.
As for `C=C1[C@H](O)CC(=C/C=C2\CCC[C@]3(C)[C@@H]([C@@H](C)COC(=O)C(C)(C)C)CC[C@@H]23)C[C@H]1O` [Example 3, (2R)-2-[(1R,3R,7E,17β)-1,3-dihydroxy-2-methylene-9,10-secoestra-5,7-dien-17-yl]propyl pivalate], the results for the EC50 in series [7], in series [1] and in series [4] were 0.9 nM, 3.9 nM and 39.9 nM, respectively. Further, the IC50 in series [2] came to 0.4 nM; in series [3], 0.003 nM; in series [5], 0.002 nM; in series [8], 1330 nM.
Regarding `C=C1[C@H](O)CC(=C/C=C2\CCC[C@]3(C)[C@@H]([C@H](C)COC(=O)C(C)(C)CC)CC[C@@H]23)C[C@H]1O` [Example 4, (2S)-2-[(1R,3R,7E,17β)-1,3-dihydroxy-2-methylene-9,10-secoestra-5,7-dien-17-yl]propyl 2,2-dimethylbutanoate], the EC50 in series [7] came to 1.3 nM; in series [1], 0.7 nM; in series [4] it was 84.7 nM. For the same compound, the IC50 was determined as 3.4 nM in series [2], 0.02 nM in series [3], 0.001 nM in series [5] and 62.4 nM in series [8].
Take `C=C1[C@H](O)CC(=C/C=C2\CCC[C@]3(C)[C@@H]([C@H](C)COC(=O)NC(C)(C)C)CC[C@@H]23)C[C@H]1O` [Example 5, (2S)-2-[(1R,3R,7E,17β)-1,3-dihydroxy-2-methylene-9,10-secoestra-5,7-dien-17-yl]propyl tert-butylcarbamate]: the EC50 amounted to 0.3 nM in series [7] and 5.6 nM in series [4]. Further, the IC50 in series [2] is 2.4 nM; in series [3] it was 0.002 nM; in series [5], 0.001 nM; in series [8], 0.1 nM.
Turning to `C[C@H](/C=C/[C@H](C)C(C)(C)O)[C@H]1CC[C@H]2/C(=C/C=C3C[C@@H](O)C[C@H](O)C3)CCC[C@]12C` [Paricalcitol, paricalcitol, reference compound], the results for the EC50 in series [7], in series [1] and in series [4] were 5.9 nM, 16 nM and 1.5 nM, respectively. Also, the IC50 in series [2] was determined as 0.8 nM; in series [3], 0.5 nM; in series [5] it was 0.2 nM; in series [8], 14.6 nM. Moreover, the “1 mg/dL Δ total Ca” value in series [6] was 0.286 µg/kg.
